Reference: patent US20140255392A1 (BAYER INTELLECTUAL PROPERTY GMBH, priority 2011, published 2014)

Molecular target: T1, human kinase Mps-1 (Homo sapiens, UniProt P33981)
T1 construct: N-terminally GST-tagged human full length recombinant Mps-1 kinase; GST (N); purchased Invitrogen, Karslruhe, Germany PV4071
T1 sequence (P33981 1-857): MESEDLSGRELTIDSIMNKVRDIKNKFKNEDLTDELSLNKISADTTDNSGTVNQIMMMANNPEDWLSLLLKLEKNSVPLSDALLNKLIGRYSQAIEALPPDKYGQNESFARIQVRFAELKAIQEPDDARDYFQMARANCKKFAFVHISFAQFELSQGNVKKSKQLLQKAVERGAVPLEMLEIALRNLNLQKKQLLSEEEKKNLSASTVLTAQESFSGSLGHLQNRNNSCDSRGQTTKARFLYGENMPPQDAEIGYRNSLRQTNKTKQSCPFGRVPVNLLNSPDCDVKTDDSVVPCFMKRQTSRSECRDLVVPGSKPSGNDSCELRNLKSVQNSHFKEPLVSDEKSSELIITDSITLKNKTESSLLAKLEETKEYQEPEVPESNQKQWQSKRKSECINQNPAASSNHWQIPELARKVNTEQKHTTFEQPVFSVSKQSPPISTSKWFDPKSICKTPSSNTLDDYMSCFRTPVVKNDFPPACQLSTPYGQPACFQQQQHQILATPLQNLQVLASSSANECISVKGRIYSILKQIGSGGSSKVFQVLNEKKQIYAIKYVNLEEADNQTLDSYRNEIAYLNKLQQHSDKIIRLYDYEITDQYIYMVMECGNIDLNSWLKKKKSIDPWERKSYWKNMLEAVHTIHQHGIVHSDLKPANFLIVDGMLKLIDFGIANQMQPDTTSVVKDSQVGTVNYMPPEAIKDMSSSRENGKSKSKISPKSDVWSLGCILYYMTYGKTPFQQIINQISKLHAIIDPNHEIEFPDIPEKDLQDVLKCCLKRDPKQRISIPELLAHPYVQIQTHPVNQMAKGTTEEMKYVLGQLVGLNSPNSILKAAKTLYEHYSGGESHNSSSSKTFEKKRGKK
Assay: Mps-1 kinase assay (TR-FRET)
Type: biochemical
Details: N-terminally GST-tagged human full length recombinant Mps-1; 10 μM ATP; 1 μM peptide substrate; 60 min at 22° C.
Protocol: The human kinase Mps-1 phosphorylates a biotinylated substrate peptide. Detection of the phosphorylated product is achieved by time-resolved fluorescence resonance energy transfer (TR-FRET) from Europium-labelled anti-phospho-Serine/Threonine antibody as donor to streptavidin labelled with cross-linked allophycocyanin (SA-XLent) as acceptor. Compounds are tested for their inhibition of the kinase activity.
N-terminally GST-tagged human full length recombinant Mps-1 kinase (purchased from Invitrogen, Karslruhe, Germany, cat. no PV4071) was used. As substrate for the kinase reaction a biotinylated peptide of the amino-acid sequence […] (C-terminus in amide form, purchased from Biosynthan GmbH, Berlin) was used.
The concentration of Mps-1 in the assay was adjusted to the activity of the enzyme lot and was chosen appropriate to have the assay in the linear range, typical enzyme concentrations were in the range of about 1 nM (final conc. in the 5 μl assay volume).
The resulting mixture was incubated 1 h at 22° C. to allow the binding of the phosphorylated peptide to the anti-phospho(Ser/Thr)-Europium-antibody. Subsequently the amount of phosphorylated substrate was evaluated by measurement of the resonance energy transfer from the Europium-labelled anti-phospho(Ser/Thr) antibody to the Streptavidin-XLent.

Structure (SMILES)	IC50 [nM]
COc1cccc(Oc2cc(NCCC(F)(F)F)c3ncc(-c4ccc(C(=O)NC5CC5)c(C)c4)n3c2)c1 [Example 52, N-cyclopropyl-4-{6-(3-methoxyphenoxy)-8-[(3,3,3-trifluoropropyl)amino]imidazo[1,2-a]pyridin-3-yl}-2-methylbenzamide]	0.9
Cc1cc(-c2cc(NCCC(F)(F)F)c3ncc(-c4ccc(C(=O)NC5CC5)c(C)c4)n3c2)ccc1C(=O)NC1CC1 [Example 32, 4,4′-{8-[(3,3,3-trifluoropropyl)amino]imidazo[1,2-a]pyridine-3,6-diyl}bis(N-cyclopropyl-2-methylbenzamide)]	0.9
Cc1cc(-c2cnc3c(NCCC(F)(F)F)cc(Oc4cccc(F)c4)cn23)ccc1C(=O)N[C@@H]1C[C@H]1C (relative stereo) [Example 48, Rel-4-{6-(3-fluorophenoxy)-8-[(3,3,3-trifluoropropyl)amino]imidazo[1,2-a]pyridin-3-yl}-2-methyl-N-[(1R,2R)-2-methylcyclopropyl]benzamide]	2.1
COc1ncc(Oc2cc(NCCC(F)(F)F)c3ncc(-c4ccc(C(=O)NC5CC5)c(C)c4)n3c2)cc1F [Example 178, N-cyclopropyl-4-{6-[(5-fluoro-6-methoxypyridin-3-yl)oxy]-8-[(3,3,3-trifluoropropyl)amino]imidazo[1,2-a]pyridin-3-yl}-2-methylbenzamide]	2.2
Cc1cc(-c2cnc3c(NCCC(F)(F)F)cc(Oc4cccc(Cl)c4)cn23)ccc1C(=O)NC1CC1F (single isomer, unassigned) [Example 39 (ent.-A or A), 4-{6-(3-chlorophenoxy)-8-[(3,3,3-trifluoropropyl)amino]imidazo[1,2-a]pyridin-3-yl}-N-{[1R,2R) or (1S,2S)]-2-fluorocyclopropyl}-2-methylbenzamide]	4.9
Cc1cc(-c2cnc3c(NCCC(F)(F)F)cc(Oc4cccc(F)c4)cn23)ccc1C(=O)N[C@H]1C[C@@H]1F (relative stereo) [Example 12 (rac.-A), N-[rel-(1S,2S)-2-fluorocyclopropyl]-4-{6-(3-fluorophenoxy)-8-[(3,3,3-trifluoropropyl)amino]imidazo[1,2-a]pyridin-3-yl}-2-methylbenzamide]	1.1
Cc1cc(-c2cnc3c(NCCC(F)(F)F)cc(Oc4ccc(OCc5ccccc5)cc4)cn23)ccc1C(=O)NC1CC1 [Example 109, 4-{6-[4-(benzyloxy)phenoxy]-8-[(3,3,3-trifluoropropyl)amino]imidazo[1,2-a]pyridin-3-yl}-N-cyclopropyl-2-methylbenzamide]	17.8
COc1cccc(Oc2cc(NCCC(F)(F)F)c3ncc(-c4ccc(C(=O)NC5(C#N)CC5)c(C)c4)n3c2)c1 [Example 53, N-(1-cyanocyclopropyl)-4-{6-(3-methoxyphenoxy)-8-[(3,3,3-trifluoropropyl)amino]imidazo[1,2-a]pyridin-3-yl}-2-methylbenzamide]	19.5
Cc1cc(-c2cnc3c(NCCC(F)(F)F)cc(Oc4cccc(F)c4)cn23)ccc1C(=O)NC1(C2CC2)CC1 [Example 49, N-[1,1′-bi(cyclopropyl)-1-0]-4-{6-(3-fluorophenoxy)-8-[(3,3,3-trifluoropropyl)amino]imidazo[1,2-a]pyridin-3-yl}-2-methylbenzamide]	97.6
Cc1cc(-c2cnc3c(NCCC(F)(F)F)cc(Oc4ccc(OC(F)(F)F)c(F)c4)cn23)ccc1C(=O)NC1(C)CC1 [Example 85, 4-{6-[3-F luoro-4-(trifluoromethoxy)phenoxy]-8-[(3,3,3-trifluoropropyl)amino]imidazo[1,2-a]pyridin-3-yl}-2-methyl-N-(1-methylcyclopropyl)benzamide]	199
Cc1cc(-c2cnc3c(NCCC(F)(F)F)cc(Oc4ccc(OC(F)(F)F)cc4)cn23)ccc1C(=O)NC1(C#N)CC1 [Example 65, N-(1-cyanocyclopropyl)-2-methyl-4-{6-[4-(trifluoromethoxy)phenoxy]-8-[(3,3,3-trifluoropropyl)amino]imidazo[1,2-a]pyridin-3-yl}benzamide]	131
COCCNc1cc(Oc2cccc(F)c2F)cn2c(-c3ccc(C(=O)NC4CC4)c(C)c3)cnc12 [Example 173, N-cyclopropyl-4-{6-(2,3-difluorophenoxy)-8-[(2-methoxyethyl)amino]imidazo[1,2-a]pyridin-3-yl}-2-methylbenzamide]	8.2
Cc1cc(-c2cnc3c(NCCC(F)(F)F)cc(-c4ccccc4O)cn23)ccc1C(=O)N[C@H]1C[C@@H]1F (relative stereo) [Example 135, N-[rel-(1S,2S)-2-fluorocyclopropyl]-4-{6-(2-hydroxyphenyl)-8-[(3,3,3-trifluoropropyl)amino]imidazo[1,2-a]pyridin-3-yl}-2-methylbenzamide]	8.4
Cc1cc(-c2cnc3c(NCCC(F)(F)F)cc(Oc4cccc(Cl)c4)cn23)ccc1C(=O)NC1(C)CC1 [Example 36, 4-{6-(3-chlorophenoxy)-8-[(3,3,3-trifluoropropyl)amino]imidazo[1,2-a]pyridin-3-yl}-2-methyl-N-(1-methylcyclopropyl)benzamide]	11.1

More lines, now with the values ahead:

IC50 [nM]	Structure (SMILES)
7.8	CCNC(=O)c1ccc(-c2cnc3c(NCCC(F)(F)F)cc(Oc4cccc(OC)c4)cn23)cc1C [Example 56, N-ethyl-4-{6-(3-methoxyphenoxy)-8-[(3,3,3-trifluoropropyl)amino]imidazo[1,2-a]pyridin-3-yl}-2-methylbenzamide]
12.7	CNC(=O)c1ccc(-c2cnc3c(NCCC(F)(F)F)cc(-c4ccc(C(=O)N[C@H]5C[C@@H]5F)c(C)c4)cn23)cc1C (relative stereo) [Example 154, 4-{6-(4-{[rel-(1S,2S)-2-fluorocyclopropyl]carbamoyl}-3-methylphenyl)-8-[(3,3,3-trifluoropropyl)amino]imidazo[1,2-a]pyridin-3-yl}-N,2-dimethylbenzamide]
36.1	CNC(=O)c1ccc(-c2cnc3c(NCCC(F)(F)F)cc(-c4ccc(C(=O)OC)c(C)c4)cn23)cc1C [Example 140, Methyl 2-methyl-4-{3-[3-methyl-4-(methylcarbamoyl)phenyl]-8-[(3,3,3-trifluoropropyl)amino]imidazo[1,2-a]pyridin-6-yl}benzoate]
5.8	C/C=C/c1cc(NCCC(F)(F)F)c2ncc(-c3ccc(C(=O)NC4CC4)c(C)c3)n2c1 [Example 111, N-cyclopropyl-2-methyl-4-{6-[(1E)-prop-1-en-1-yl]-8-[(3,3,3-trifluoropropyl)amino]imidazo[1,2-a]pyridin-3-yl}benzamide]
250	CCNC(=O)c1ccc(-c2cnc3c(NCCC(F)(F)F)cc(C(C)O)cn23)cc1C (racemic) [Example 145, N-ethyl-4-{6-[(1RS)-1-hydroxyethyl]-8-[(3,3,3-trifluoropropyl)amino]imidazo[1,2-a]pyridin-3-yl}-2-methylbenzamide]
19.8	CNC(=O)c1ccc(-c2cnc3c(NCCC(F)(F)F)cc(-c4ccccc4OC)cn23)cc1C [Example 81, 4-{6-(2-Methoxyphenyl)-8-[(3,3,3-trifluoropropyl)amino]imidazo[1,2-a]pyridin-3-yl}-N,2-dimethylbenzamide]
13.3	CCc1cc(NCCC(F)(F)F)c2ncc(-c3ccc(C(=O)NC4CC4)c(C)c3)n2c1 [Example 99]
3.4	CNC(=O)c1ccc(-c2cnc3c(NCCC(F)(F)F)cc(Oc4cccc(F)c4)cn23)cc1C [Example 8, 4-{6-(3-Fluorophenoxy)-8-[(3,3,3-trifluoropropyl)amino]imidazo[1,2-a]pyridin-3-yl}-N,2-dimethylbenzamide]
54.7	CNC(=O)c1ccc(-c2cnc3c(NCCC(F)(F)F)cc(/C=C\CO)cn23)cc1C [Example 119, 4-{6-[(1Z)-3-hydroxyprop-1-en-1-yl]-8-[(3,3,3-trifluoropropyl)amino]imidazo[1,2-a]pyridin-3-yl}-N,2-dimethylbenzamide]
0.9	Cc1cc(-c2cnc3c(NCCC(F)(F)F)cc(-c4ccccc4CO)cn23)ccc1C(=O)NC1CC1 [Example 2-1, N-cyclopropyl-4-{6-[2-(hydroxymethyl)phenyl]-8-[(3,3,3-trifluoropropyl)amino]imidazo[1,2-a]pyridin-3-yl}-2-methylbenzamide]
